Assay results as given in patent US12276654B2, “Chemical probe-dependent evaluation of protein activity and uses thereof” (The University of Chicago, priority 2017, dated 2025).

How the values were obtained:
MGLL = biological target: T1, MGLL (Mus musculus, UniProt O35678); test: sADPL in vivo target engagement in mPBMCs after oral gavage, off-target MGLL; conditions: mice, 3 and 80 mg/kg
T1 construct: Then the mPBMCs were acquired from the mouse blood and subjected to family wide probe treatment; from tissue; host or cells: mouse blood PBMCs (mPBMCs)
T1 sequence (O35678 1-303): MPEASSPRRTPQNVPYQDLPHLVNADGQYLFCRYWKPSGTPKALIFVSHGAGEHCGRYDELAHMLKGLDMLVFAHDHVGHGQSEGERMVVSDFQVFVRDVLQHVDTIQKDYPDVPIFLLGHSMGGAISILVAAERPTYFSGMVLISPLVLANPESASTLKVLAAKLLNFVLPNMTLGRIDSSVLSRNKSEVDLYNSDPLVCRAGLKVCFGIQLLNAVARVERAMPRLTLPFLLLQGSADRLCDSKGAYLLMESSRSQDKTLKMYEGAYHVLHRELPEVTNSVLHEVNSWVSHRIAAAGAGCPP
From the text: FIG. 25. In vivo Target Engagement. The mice were administrated with vehicle (PEG300) or NCEH1 inhibitor JW480 by oral gavage. Then the mPBMCs were acquired from the mouse blood and subjected to family wide probe treatment to profile the in vivo target engagement.
Following the in vitro study, in vivo target engagement was planned. In this experiment, the inventors orally gavaged the mice with vehicle or inhibitors, then collected the mPBMCs for probe treatment and sADPL measurement. Again, first the activity of NCEH1 was tested in mice PBMCs, and good activity was found. The delta Ct is over 7 cycles, which is over 100 fold change.

NCEH1 = biological target: T2, NCEH1 (Homo sapiens, UniProt Q6PIU2); design: endogenous NCEH1 activity in SKOV3 cells; endogenous in cells; host or cells: SKOV3; wild-type PC3; PAFAH2-expressing PC3; conditions: previously reported; PC3 cells; read-out: IC50 for NCEH1 previously reported by gel-based profiling; cited from earlier work
T2 sequence (Q6PIU2 1-408): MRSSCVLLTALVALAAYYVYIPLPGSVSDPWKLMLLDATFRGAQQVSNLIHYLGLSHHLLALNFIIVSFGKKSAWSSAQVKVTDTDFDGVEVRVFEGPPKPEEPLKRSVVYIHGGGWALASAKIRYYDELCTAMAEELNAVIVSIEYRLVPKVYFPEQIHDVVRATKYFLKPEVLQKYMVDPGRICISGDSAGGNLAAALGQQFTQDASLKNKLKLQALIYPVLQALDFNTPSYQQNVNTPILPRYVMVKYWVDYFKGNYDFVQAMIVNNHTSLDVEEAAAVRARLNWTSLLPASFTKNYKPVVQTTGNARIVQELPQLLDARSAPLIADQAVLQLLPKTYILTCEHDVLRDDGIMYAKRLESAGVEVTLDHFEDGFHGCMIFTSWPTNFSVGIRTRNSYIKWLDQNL

**Q.** With `CC(C)c1ccccc1OC(=O)NCCc1ccc2ccccc2c1` [JW480] as the compound, how does the “in vivo target engagement of off-target MGLL in mPBMCs” value (MGLL) read?
**A.** no target engagements were observed

**Q.** And the IC50 (NCEH1)?
**A.** 12 nM
